# Test results as given in patent US4062816A, “D-Ala^5 -somatostatin and intermediates thereto” (Eli Lilly and Company, priority 1976, dated 1977).
# Legend:
# growth hormone = assay: inhibition of the release of growth hormone in pentobarbital-stimulated rats; type: in vivo, Spraque-Dawley rats; conditions: 50 μg./rat, subcutaneously; sodium pentobarbital-stimulated; relative to saline control group
# Method: The product from Example 4 was tested for its activity in inhibiting the release of growth hormone. The procedure which was employed is carried out using mature male Spraque-Dawley rats (Laboratory Supply Company, Indianapolis, Ind.). The test is a modification of the method of P. Brazeau, W. Vale, and R. Guillemen, Endocrinology, 94 184 (1974). In this assay, three groups of eight rats each were employed. First, sodium pentobarbital was administered to all […] rats to stimulate growth hormone secretion. One of the groups of eight rats is the control group and received only saline. A second of the groups received somatostatin at 50 μg./rat, subcutaneously. The third group received D-Ala^5 -somatostatin at 50 μg./rat, subcutaneously. The degree of inhibition of serum growth hormone concentration then was determined with respect to the control group, and the relative activities of D-Ala^5 -somatostatin and somatostatin itself were compared. At a dose level of 50 μg./rat, D-Ala^5 -somatostatin inhibited the increase in serum growth hormone concentration by 40-50 percent, while somatostatin itself produced a 90 percent inhibition.
# glucagon = assay: inhibition of glucagon secretion in dogs during L-alanine infusion; type: in vivo, mongrel dogs; conditions: intravenous infusion 0.20-0.30 μg/kg/minute (D-Ala5-somatostatin 0.230 μg/kg/min.); fasted dogs
# Method: (§1) The product from Example 4 also was tested for its activity in inhibiting glucagon and insulin secretion. Normal mongrel dogs of either sex were fasted overnight. Control blood samples were obtained, and then an intravenous infusion of saline, somatostatin, or D-Ala^5 -somatostatinwas started. After 30 minutes, L-alanine additionally was administered intravenously for a period of 15 minutes. The infusion of saline, somatostatin, of D-Ala^5 -somatostatin was continued for 15 minutes after completion of the alanine infusion. The total dose of somatostatin or D-Ala^5 -somatostatin which was infused is 200-500 μg/dog (0.20-0.30 μg/kg/ minute), and the total dose of L-alanine infused was 1 mmol.kg./15 minutes.
# insulin = assay: inhibition of insulin secretion in dogs during L-alanine infusion; type: in vivo, mongrel dogs; conditions: intravenous infusion 0.20-0.30 μg/kg/minute (D-Ala5-somatostatin 0.230 μg/kg/min.); fasted dogs
# Method: as §1
compound,measurement,setting,value
C[C@H](N)C(=O)NCC(=O)N[C@H]1CSSC[C@@H](C(=O)O)NC(=O)[C@H](CO)NC(=O)[C@H]([C@@H](C)O)NC(=O)[C@H](Cc2ccccc2)NC(=O)[C@H]([C@@H](C)O)NC(=O)[C@H](CCCCN)NC(=O)[C@H](Cc2c[nH]c3ccccc23)NC(=O)[C@H](Cc2ccccc2)NC(=O)[C@H](Cc2ccccc2)NC(=O)[C@@H](C)NC(=O)[C@H](CCCCN)NC1=O [D-Ala^5 -somatostatin],inhibition of the increase in serum growth hormone concentration,growth hormone,40-50%
same,effect on the increase in serum glucagon concentration produced by L-alanine,glucagon,did not affect the increase in serum glucagon concentration
same,effect on basal serum insulin concentration (before alanine infusion),insulin,caused a brief increase in insulin concentration
same,effect on the increase in insulin concentration/secretion produced by L-alanine,insulin,did not inhibit the increase in insulin secretion
